Data from ChEMBL document CHEMBL4251561, “1,4-Naphthoquinones potently inhibiting P2X7 receptor activity” (Eur J Med Chem, 2018).
Converted amounts (≈) assume the structure as drawn. The source made the active and inactive calls. The calls are words filed in the database; no cut-off is given here.

Assays:
P2X purinoceptor 7 [1] = molecular target: T1, P2X purinoceptor 7 (Mus musculus, UniProt Q9Z1M0); assay: (§1) Antagonist activity at P2X7R in Swiss Webster mouse peritoneal macrophages assessed as inhibition of ATP-induced propidium iodide uptake preincubated for 10 mins followed by ATP induction measured after 25 mins by fluorescence assay
T1 sequence (Q9Z1M0 whole entry): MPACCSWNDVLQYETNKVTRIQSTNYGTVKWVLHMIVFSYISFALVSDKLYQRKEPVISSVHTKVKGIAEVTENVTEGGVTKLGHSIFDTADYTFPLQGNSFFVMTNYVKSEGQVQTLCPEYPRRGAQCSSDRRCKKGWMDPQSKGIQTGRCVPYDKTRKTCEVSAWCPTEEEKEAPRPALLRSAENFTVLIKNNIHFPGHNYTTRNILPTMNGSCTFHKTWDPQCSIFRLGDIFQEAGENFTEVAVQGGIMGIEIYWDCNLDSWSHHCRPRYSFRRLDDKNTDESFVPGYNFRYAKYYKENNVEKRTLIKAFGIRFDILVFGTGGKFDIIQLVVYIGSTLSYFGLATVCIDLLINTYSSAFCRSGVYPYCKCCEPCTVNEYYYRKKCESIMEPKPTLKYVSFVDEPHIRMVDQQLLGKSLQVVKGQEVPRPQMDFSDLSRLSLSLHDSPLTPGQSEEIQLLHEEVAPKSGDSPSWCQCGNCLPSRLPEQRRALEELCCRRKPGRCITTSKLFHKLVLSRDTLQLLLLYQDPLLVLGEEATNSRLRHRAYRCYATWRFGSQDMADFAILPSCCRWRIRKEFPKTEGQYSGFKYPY

Peritoneal macrophage [2] = assay: Cytotoxicity against Swiss Webster mouse peritoneal macrophages at 100 uM after 72 hrs by resazurin reduction assay; type: cell-based
Peritoneal macrophage [3] = assay: Antiinflammatory activity in LPS/IFNgamma-differentiated Swiss Webster mouse peritoneal macrophages assessed as inhibition of ATP-induced IL-1beta release preincubated for 15 mins followed by ATP/LPS challenge measured after 30 mins by sandwich ELISA; type: functional, cell-based
P2X7R = assay: Selectivity index, ratio of CC50 for Swiss Webster mouse peritoneal macrophages to IC50 for antagonist activity at P2X7R in Swiss Webster mouse peritoneal macrophages; type: toxicity; conditions: read-out: Ratio CC50/IC50
THP-1 = assay: Antiinflammatory activity in LPS/IFNgamma-differentiated human THP1 cells assessed as inhibition of ATP-induced IL-1beta release after 30 mins by ELISA; type: functional, cell-based; conditions: THP-1, 0.5 h
[4] = Cytotoxicity against Swiss Webster mouse peritoneal macrophages by LDH release assay; type: cell-based, Peritoneal macrophage
P2X purinoceptor 7 [5] = molecular target: T2, P2X purinoceptor 7 (Homo sapiens, UniProt Q99572); assay: Antagonist activity at human P2X7R expressed in HEK293 cells assessed as inhibition of ATP-induced […] uptake preincubated for 10 mins followed by ATP induction measured after 25 mins by fluorescence assay; type: cell-based
T2 sequence (Q99572 whole entry): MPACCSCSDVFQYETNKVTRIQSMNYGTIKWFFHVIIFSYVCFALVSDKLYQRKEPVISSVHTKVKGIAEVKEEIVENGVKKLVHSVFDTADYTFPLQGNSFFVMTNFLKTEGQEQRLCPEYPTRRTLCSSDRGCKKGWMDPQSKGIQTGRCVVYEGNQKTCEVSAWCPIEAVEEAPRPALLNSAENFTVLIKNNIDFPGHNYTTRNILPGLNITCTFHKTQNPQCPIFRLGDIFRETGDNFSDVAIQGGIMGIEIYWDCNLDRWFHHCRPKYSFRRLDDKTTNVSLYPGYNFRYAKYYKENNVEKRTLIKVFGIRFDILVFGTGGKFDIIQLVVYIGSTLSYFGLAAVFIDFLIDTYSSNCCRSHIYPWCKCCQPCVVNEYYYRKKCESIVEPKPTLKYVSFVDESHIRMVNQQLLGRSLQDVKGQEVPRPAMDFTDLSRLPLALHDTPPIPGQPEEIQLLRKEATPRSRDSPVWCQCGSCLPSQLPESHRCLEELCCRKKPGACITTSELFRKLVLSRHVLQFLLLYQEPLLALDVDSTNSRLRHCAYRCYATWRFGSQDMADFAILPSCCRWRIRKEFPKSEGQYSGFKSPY

Mus musculus [6] = assay: Antiinflammatory activity in Swiss Webster mouse assessed as inhibition of carrageenan-induced paw edema at 10 mg/kg, ip preincubated for 30 mins followed by carrageenan challenge measured after 60 mins by plethysmometer; type: functional, organism-based
[7] = Safety index, ratio of test compound CC50 to A740003 CC50 for Swiss Webster mouse peritoneal macrophages by LDH release assay; type: ADME, cell-based, Peritoneal macrophage
[8] = molecular target: T3, P2X purinoceptor 7 (Mus musculus) (UniProt Q9Z1M0); assay: Antagonist activity at P2X7R in Swiss Webster mouse peritoneal macrophages assessed as inhibition of ionic current amplitude at 500 nM incubated for 300 secs in presence of ATP by patch clamp method
T3 sequence (whole entry): T1 sequence (Q9Z1M0 whole entry)

[9] = Intrinsic clearance in human liver microsomes assessed per mg of protein at 1 uM preincubated for 45 mins followed by NADPH addition; type: ADME, microsome; conditions: read-out: CLH
Peritoneal macrophage [10] = assay: Antiinflammatory activity in IFNgamma-differentiated Swiss Webster mouse peritoneal macrophages assessed as inhibition of LPS-induced IL-1beta release at 500 nM preincubated for 15 mins followed by LPS challenge measured after 30 mins by sandwich ELISA; type: functional, cell-based
[11] = Intrinsic clearance in mouse liver microsomes assessed per mg of protein at 1 uM preincubated for 45 mins followed by NADPH addition; type: ADME, microsome; conditions: read-out: CLH
[12] = Kinetic solubility in pH 4 citrate buffer; type: physicochemical; conditions: read-out: Kinetic_solubility
[13] = molecular target: T3, P2X purinoceptor 7 (Mus musculus); assay: as §1
[14] = Safety index, ratio of test compound CC50 to BGG CC50 for Swiss Webster mouse peritoneal macrophages by LDH release assay; type: ADME, cell-based, Peritoneal macrophage
[15] = Octanol-PBS distribution co-efficient, log D of the compound at 25 mM at pH 7.4 after 2 hrs by shake flask method; type: physicochemical
Mus musculus [16] = assay: Antiinflammatory activity in ip dosed Swiss Webster mouse assessed as inhibition of carrageenan-induced paw edema preincubated for 30 mins followed by carrageenan challenge measured after 60 mins by plethysmometer; type: functional, organism-based
[17] = Kinetic solubility in pH 10 sodium hydroxide buffer; type: physicochemical; conditions: read-out: Kinetic_solubility
[18] = Kinetic solubility in pH 2 hydrochloride buffer; type: physicochemical; conditions: read-out: Kinetic_solubility
[19] = Apparent permeability across apical to basolateral side in human Caco2 cells at 100 uM after 60 mins by lucifer yellow fluorescence-based assay; type: ADME, cell-based; conditions: Caco-2
[20] = Apparent permeability across apical to basolateral side in human Caco2 cells at 100 uM after 60 mins by lucifer yellow fluorescence-based assay relative to propranolol; type: ADME, cell-based; conditions: caco-2, 1 h
[21] = Kinetic solubility in pH 7.4 phosphate buffer; type: physicochemical; conditions: read-out: Kinetic_solubility

Row | SMILES | IC50 (P2X purinoceptor 7 [1]) | Activity (Peritoneal macrophage [2]) | IC50 (Peritoneal macrophage [3]) | selectivity ratio (P2X7R) | IC50 (THP-1) | CC50 [4] | IC50 (P2X purinoceptor 7 [5]) | other results
1 | COc1cccc(C2=C(O)C(=O)c3ccccc3C2=O)c1 | 3.17 µM | Non-Toxic |  |  |  |  |  | 
2 | CCOc1ccc(Nc2ccc(/C(=C3C=C/C(=[N+](/CC)Cc4cccc(S(=O)(=O)[O-])c4)C=C/3C)c3ccc(N(CC)Cc4cccc(S(=O)(=O)O)c4)cc3C)cc2)cc1 [BRILLIANT BLUE G] | 15.2 µM |  | 19800 nM | 5.73 | 19300 nM | 87.3 µM | 536 nM | 
3 | O=C1C=C(O)C(=O)c2ccccc21 [LAWSONE] | 75.5 µM | Toxic |  |  |  |  |  | 
4 | O=C(O)Cc1ccccc1Nc1c(Cl)cccc1Cl |  |  |  |  |  |  |  | inhibition (Mus musculus [6]): Active
5 | N#Cc1ccc(C2=C(O)C(=O)c3ccccc3C2=O)cc1 | 45.8 µM | Non-Toxic |  |  |  |  |  | 
6 | O=C1C(O)=C(c2ccccc2)C(=O)c2ccccc21 | 0.0231 µM | Non-Toxic | 11.2 nM | 86400 | 9.8 nM | 1990 µM | 22.4 nM | selectivity ratio [7]: 3 to 6; inhibition [8]: Active; microsomal CLint at 1 µM [9]: 36.8 µL/min/mg; inhibition (Peritoneal macrophage [10]): inactive; microsomal CLint at 1 µM [11]: 27.7 µL/min/mg; solubility kinetic [12]: < 500 µM; inhibition [13]: Dose-dependent effect; selectivity ratio [14]: 10 to 20; logD at 2 h, 25000 µM [15]: -0.39; inhibition (Mus musculus [16]): Dose-dependent effect; solubility kinetic [17]: < 500 µM; solubility kinetic [18]: < 500 µM; Papp A→B at 1 h, 100 µM [19]: 61.1 ×10⁻⁶ cm/s; Papp [20]: 60%; solubility kinetic [21]: < 500 µM
7 | Cc1ccc(C2=C(O)C(=O)c3ccccc3C2=O)cc1 | 81.3 µM | Non-Toxic |  |  |  |  |  | 
8 | COc1ccc(CC(=O)NC(N/C(=N/C#N)Nc2cccc3ncccc23)C(C)(C)C)cc1OC (stereo unspecified) | 0.897 µM |  | 723 nM | 362 | 689 nM | 325 µM | 109 nM | inhibition [8]: Active
9 | COc1ccc(C2=C(O)C(=O)c3ccccc3C2=O)cc1 | 80.1 µM | Non-Toxic |  |  |  |  |  | 
10 | O=C1C(O)=C(Br)C(=O)c2ccccc21 | 0.712 µM | Non-Toxic | 677 nM | 1180 | 633 nM | 844 µM | 414 nM | selectivity ratio [7]: 3 to 6; inhibition (Peritoneal macrophage [10]): inactive; inhibition [13]: Dose-dependent effect; selectivity ratio [14]: 10 to 20
11 | O=C1C(O)=C(c2cccc(F)c2)C(=O)c2ccccc21 | 33.5 µM | Non-Toxic |  |  |  |  |  | 
12 | O=C1C(O)=C(I)C(=O)c2ccccc21 | 0.0484 µM | Non-Toxic | 48.9 nM | 50600 | 40.2 nM | 2020 µM | 71.2 nM | selectivity ratio [7]: 3 to 6; inhibition [8]: Active; microsomal CLint at 1 µM [9]: 31.1 µL/min/mg; inhibition (Peritoneal macrophage [10]): inactive; microsomal CLint at 1 µM [11]: 24.6 µL/min/mg; solubility kinetic [12]: 300 µM (≈ 90 µg/mL); inhibition [13]: Dose-dependent effect; selectivity ratio [14]: 10 to 20; logD at 2 h, 25000 µM [15]: -0.11; inhibition (Mus musculus [16]): Dose-dependent effect; solubility kinetic [17]: 300 µM (≈ 90 µg/mL); solubility kinetic [18]: 300 µM (≈ 90 µg/mL); Papp A→B at 1 h, 100 µM [19]: 54.2 ×10⁻⁶ cm/s; Papp [20]: <= 50%; solubility kinetic [21]: < 300 µM
